Results on 50 compounds are retold here after patent US8415469B2, “Compounds and methods for kinase modulation, and indications therefor” (Plexxikon Inc., priority 2005, dated 2013).

SMILES strings stand for the structures. Bounds are passed on as bounds.

Type in all cases: biochemical
Experiment [1] addresses T1, Kdr (Homo sapiens, UniProt P35968).
T1 construct: purchased Invitrogen (assay run by Invitrogen)
Kind of experiment: Z'-Lyte FRET kinase assay (Invitrogen), Kdr. Particulars: read-out: IC50, activity toward kinase Kdr.

The target of experiment [2] is T2, Kit (Homo sapiens, UniProt P10721).
T2 construct: P1332.N6 BI PTP KIT M552-K948-X COD; His6 (N); made in house; host or cells: E. coli (PTP1B co-expressed)
Kind of experiment: AlphaScreen kinase assay, Kit. Particulars: read-out: IC50, activity toward kinase Kit. On the technique in general: Bead proximity is the source of the signal in Alpha formats.

For experiment [3], the target named is T3, Zap70 (Homo sapiens, UniProt P43403).
T3 construct: P1868.pFastBac1 ZAP70 D327-G606 HIS, WT; His7 (HHHHHHH) (C); made in house
T3 sequence (P43403 with tags, fused parts or gaps): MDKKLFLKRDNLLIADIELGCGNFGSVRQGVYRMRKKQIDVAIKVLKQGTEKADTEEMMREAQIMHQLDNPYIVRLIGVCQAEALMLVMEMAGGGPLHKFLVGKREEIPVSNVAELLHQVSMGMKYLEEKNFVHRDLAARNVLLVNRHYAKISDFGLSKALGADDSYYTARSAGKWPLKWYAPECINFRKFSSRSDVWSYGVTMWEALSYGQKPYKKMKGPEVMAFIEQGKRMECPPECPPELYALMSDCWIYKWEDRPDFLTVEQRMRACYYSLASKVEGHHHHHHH
Briefly: AlphaScreen kinase assay, Zap70. Particulars: read-out: IC50, activity toward kinase Zap70. From the text:
AlphaScreen assay was used to screen additional kinases. The assay is similarly dependent on the phosphorylation of a peptide substrate. In this assay, an antibody that recognizes phosphorylated substrate is bound to an acceptor bead. The peptide substrate is attached to biotin, which binds to a donor head that contains streptavidin. Thus phosphorylated substrate is bound by antibody and streptavidin, bringing the donor and acceptor heads into close proximity when kinase is not inhibited. The donor produces singlet oxygen which results in emission from the acceptor when they are in close proximity. Conversely, when kinase is inhibited, the donor and acceptor beads are not associated and the emission from the acceptor is reduced.
AlphaScreen assays were done using compounds dissolved in DMSO to a concentration of 20 mM. The compounds were diluted accordingly to the desired final concentrations in each sample well, using 1:3 serial dilution for a total of 8 concentration points.

The target of experiment [4] is T4, Jnk3 (Homo sapiens, UniProt P53779).
T4 construct: purchased Upstate Biotechnology
Kind of experiment: AlphaScreen kinase assay, Jnk3. The conditions noted are these: read-out: IC50, activity toward kinase Jnk3.

For experiment [5], the target named is T5, FGFR1 (Homo sapiens, UniProt P11362, C488A/C584S).
T5 construct: P1351.pET N6 BI-PTP FGFR A458-E765-X C488A, C584S; made in house; host or cells: E. coli (PTP1B co-expressed)
Briefly: AlphaScreen kinase assay, FGFR1. Particulars: read-out: IC50, activity toward kinase FGFR.

In experiment [6] the target is T6, B-Raf V600E (Homo sapiens, UniProt P15056, V600E).
T6 construct: P4254. pFastBacBD-CDC37 BRAF D437-K722-X, V600E; His6 with pFastBac HT leader (TEV site) (N); made in house; host or cells: Sf9 (baculovirus; chaperone CDC37 co-expressed)
Kind of experiment: AlphaScreen kinase assay, B-Raf V600E. Particulars: read-out: IC50, activity toward kinase B-Raf V600E.

The target in experiment [7] is T7, Ret (Homo sapiens, UniProt P07949).
T7 construct: P1378.pET-SF BI-PTP RET H661-R1012 HIS; made in house
T7 sequence (P07949 with tags, fused parts or gaps): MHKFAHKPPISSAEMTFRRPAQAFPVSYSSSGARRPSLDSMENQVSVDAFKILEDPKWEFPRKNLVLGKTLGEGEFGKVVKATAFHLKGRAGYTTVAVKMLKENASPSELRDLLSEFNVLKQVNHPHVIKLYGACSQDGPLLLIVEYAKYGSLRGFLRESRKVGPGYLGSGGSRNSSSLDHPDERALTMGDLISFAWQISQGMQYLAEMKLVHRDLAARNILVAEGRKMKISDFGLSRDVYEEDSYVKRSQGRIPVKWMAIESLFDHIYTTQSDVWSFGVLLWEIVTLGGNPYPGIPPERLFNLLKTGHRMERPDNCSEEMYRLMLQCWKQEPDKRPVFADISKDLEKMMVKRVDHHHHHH
Briefly: AlphaScreen kinase assay, Ret. The conditions noted are these: read-out: IC50, activity toward kinase Ret.
Description: AlphaScreen assays were done using compounds dissolved in DMSO to a concentration of 20 mM. The compounds were diluted accordingly to the desired final concentrations in each sample well, using 1:3 serial dilution for a total of 8 concentration points. Plates were prepared such that each kinase reaction is 20 μl in 1× kinase buffer, 5% DMSO and 10 μM ATP. After incubation of the kinase reaction for 1 hour at room temperature, 5 μl of donor beads in stop buffer (50 mM EDTA in 1× kinase buffer) was added, the sample was mixed and incubated for 20 minutes at room temperature before adding 5 μl of acceptor beads in stop buffer. The samples were incubated for 60 minutes at room temperature and the signal per well was read on AlphaQuest reader.

T6 sequence (P15056 with tags, fused parts or gaps V600E): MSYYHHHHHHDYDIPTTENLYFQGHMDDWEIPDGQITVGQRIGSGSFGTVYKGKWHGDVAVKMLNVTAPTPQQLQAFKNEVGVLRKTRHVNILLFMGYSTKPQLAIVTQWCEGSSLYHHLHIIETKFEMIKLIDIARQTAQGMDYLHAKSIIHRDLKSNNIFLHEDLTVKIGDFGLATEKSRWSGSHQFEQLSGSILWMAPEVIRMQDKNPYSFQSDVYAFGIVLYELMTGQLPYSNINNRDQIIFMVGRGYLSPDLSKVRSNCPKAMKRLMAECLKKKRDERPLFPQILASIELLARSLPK
T5 sequence (P11362 458-765 C488A/C584S): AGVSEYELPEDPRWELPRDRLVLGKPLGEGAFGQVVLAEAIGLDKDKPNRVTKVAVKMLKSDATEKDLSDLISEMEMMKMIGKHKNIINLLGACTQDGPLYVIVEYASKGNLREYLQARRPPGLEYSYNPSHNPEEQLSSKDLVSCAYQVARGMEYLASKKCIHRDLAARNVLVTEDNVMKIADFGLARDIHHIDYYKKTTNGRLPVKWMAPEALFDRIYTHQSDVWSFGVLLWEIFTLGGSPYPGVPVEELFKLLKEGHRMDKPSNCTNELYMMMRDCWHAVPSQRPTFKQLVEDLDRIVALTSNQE
T1 sequence (P35968 20-1356): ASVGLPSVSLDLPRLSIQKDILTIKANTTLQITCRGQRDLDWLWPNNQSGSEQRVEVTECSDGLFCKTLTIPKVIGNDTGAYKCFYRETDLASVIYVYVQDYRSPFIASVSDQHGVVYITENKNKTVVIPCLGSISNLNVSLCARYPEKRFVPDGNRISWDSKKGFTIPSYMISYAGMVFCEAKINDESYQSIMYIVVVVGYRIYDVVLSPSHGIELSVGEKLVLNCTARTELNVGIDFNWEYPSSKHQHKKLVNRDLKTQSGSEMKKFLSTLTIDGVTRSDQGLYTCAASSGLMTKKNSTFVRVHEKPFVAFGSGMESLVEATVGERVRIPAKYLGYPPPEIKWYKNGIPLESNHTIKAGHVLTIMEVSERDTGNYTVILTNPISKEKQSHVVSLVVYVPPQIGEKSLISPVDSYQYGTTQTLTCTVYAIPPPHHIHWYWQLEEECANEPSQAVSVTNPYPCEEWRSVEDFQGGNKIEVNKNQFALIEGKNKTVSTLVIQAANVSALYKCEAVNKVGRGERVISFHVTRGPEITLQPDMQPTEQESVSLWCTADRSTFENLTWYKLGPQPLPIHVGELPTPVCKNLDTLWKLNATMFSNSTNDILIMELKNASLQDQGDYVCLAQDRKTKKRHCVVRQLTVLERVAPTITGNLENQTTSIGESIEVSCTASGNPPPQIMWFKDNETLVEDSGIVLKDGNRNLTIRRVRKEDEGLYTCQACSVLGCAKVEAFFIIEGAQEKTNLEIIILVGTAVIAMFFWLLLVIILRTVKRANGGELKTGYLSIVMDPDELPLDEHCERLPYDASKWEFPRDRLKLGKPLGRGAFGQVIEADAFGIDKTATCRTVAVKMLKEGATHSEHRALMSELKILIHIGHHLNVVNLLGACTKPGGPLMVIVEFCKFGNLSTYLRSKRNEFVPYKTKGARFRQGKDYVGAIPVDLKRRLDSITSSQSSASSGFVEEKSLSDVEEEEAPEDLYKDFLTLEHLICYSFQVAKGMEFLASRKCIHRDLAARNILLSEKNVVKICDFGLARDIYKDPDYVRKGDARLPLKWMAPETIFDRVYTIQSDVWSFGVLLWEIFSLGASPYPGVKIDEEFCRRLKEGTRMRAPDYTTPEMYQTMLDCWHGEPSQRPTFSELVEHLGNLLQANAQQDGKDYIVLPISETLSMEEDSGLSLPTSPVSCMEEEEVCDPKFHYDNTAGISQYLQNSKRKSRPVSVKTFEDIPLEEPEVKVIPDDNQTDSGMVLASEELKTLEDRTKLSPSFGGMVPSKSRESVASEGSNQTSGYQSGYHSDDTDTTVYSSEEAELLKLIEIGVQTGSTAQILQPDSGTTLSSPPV
T4 sequence (P53779 whole entry): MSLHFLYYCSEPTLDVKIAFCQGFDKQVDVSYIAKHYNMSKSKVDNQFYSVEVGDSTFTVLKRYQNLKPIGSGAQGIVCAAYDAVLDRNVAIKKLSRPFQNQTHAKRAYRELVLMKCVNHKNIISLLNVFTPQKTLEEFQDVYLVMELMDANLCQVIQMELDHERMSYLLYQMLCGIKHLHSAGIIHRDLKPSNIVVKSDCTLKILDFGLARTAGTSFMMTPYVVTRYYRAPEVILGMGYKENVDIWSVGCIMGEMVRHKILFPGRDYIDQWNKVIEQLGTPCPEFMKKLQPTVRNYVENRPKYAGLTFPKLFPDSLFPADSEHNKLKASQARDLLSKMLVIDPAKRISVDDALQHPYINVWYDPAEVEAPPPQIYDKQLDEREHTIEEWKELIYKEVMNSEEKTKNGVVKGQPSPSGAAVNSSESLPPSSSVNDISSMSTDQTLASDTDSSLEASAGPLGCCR
T2 sequence (P10721 with tags, fused parts or gaps): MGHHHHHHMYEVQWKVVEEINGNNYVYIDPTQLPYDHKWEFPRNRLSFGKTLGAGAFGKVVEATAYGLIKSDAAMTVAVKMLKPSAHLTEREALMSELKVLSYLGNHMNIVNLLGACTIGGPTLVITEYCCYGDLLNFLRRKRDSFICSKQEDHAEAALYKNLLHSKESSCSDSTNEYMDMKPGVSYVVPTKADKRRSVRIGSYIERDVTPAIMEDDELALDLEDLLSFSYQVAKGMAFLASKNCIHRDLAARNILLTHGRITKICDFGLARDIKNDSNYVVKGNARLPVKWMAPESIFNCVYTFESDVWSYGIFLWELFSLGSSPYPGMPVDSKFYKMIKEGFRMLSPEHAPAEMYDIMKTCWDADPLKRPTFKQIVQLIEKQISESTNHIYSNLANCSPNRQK

As a reminder, the IC50 is the concentration that gives 50% inhibition. `Fc1ccccc1-c1c[nH]c2ncccc12` [Compound P-0195]: the IC50 in experiment [1], in experiment [2] and in experiment [3] was no more than 10 µM each time.

For `COc1cccc(C(=O)c2c[nH]c3ncc(-c4cccnc4)cc23)c1` [Compound P-0218], the IC50 in experiment [4] and in experiment [3] was no more than 10 µM throughout. Take `Fc1cc(F)cc(-c2ccnc3[nH]ccc23)c1` [Compound P-0296]: the IC50 in experiment [1] and in experiment [3] was no more than 10 µM throughout.

As for `COc1ccc(Cc2c[nH]c3ncccc23)cc1F` [Compound P-0359], the IC50 in experiment [3] is no more than 10 µM.

In the case of `Clc1ccc(/C=C\c2c[nH]c3ncccc23)cn1` [Compound P-0360], the IC50 in experiment [3] is no more than 10 µM. As for `CC(C)c1ccc(Cc2c[nH]c3ncccc23)cn1` [Compound P-0379], the IC50 in experiment [5], in experiment [1] and in experiment [3] was no more than 10 µM in each case. With `c1cncc(-c2ccnc3[nH]ccc23)c1` [Compound P-0387], the 50% inhibitory concentration (IC50) in experiment [3] was no more than 10 µM. In the case of `Cc1cc2cccnc2[nH]1` [Compound P-0394], the IC50 in experiment [3] is no more than 10 µM. Consider `COC(c1ccc(Br)cc1)c1c[nH]c2ncc(-c3cccc(S(C)(=O)=O)c3)cc12` (centres unmarked) [Compound P-0434], for which the IC50 in experiment [6], in experiment [7] and in experiment [3] was no more than 10 µM in each case.

For the compound `O=C(CCc1c[nH]c2ncccc12)NCc1cccnc1` [Compound P-0456], in experiment [3], the IC50 was no more than 10 µM. On to `CC(C)(C)NCc1c[nH]c2ncccc12` [Compound P-0476], for which, in experiment [3], the IC50 is no more than 10 µM. On the same count and under the same terms, to `O=S(=O)(NCc1c[nH]c2ncccc12)c1cccc(-c2cccc(CO)c2)c1` [Compound P-0484] belongs no more than 10 µM. Take `N#Cc1ccc(/C=C\c2c[nH]c3ncccc23)cc1` [Compound P-0500]: the IC50 in experiment [3] is no more than 10 µM.

As to `Cc1cc(C)cc(Cc2c[nH]c3ncccc23)c1` [Compound P-0507], the IC50 in experiment [5] and in experiment [3] was no more than 10 µM throughout.

Regarding `CS(=O)(=O)c1ccc(CNCc2[nH]c3ncccc3c2-c2cccc(CO)c2)cc1` [Compound P-0523], the IC50 in experiment [3] was no more than 10 µM. In the case of `COC(=O)c1ccc(CCc2c[nH]c3ncccc23)cc1` [Compound P-0586], in experiment [3], the IC50 was no more than 10 µM. Still for that read-out and setting: to `Fc1ccc(Cc2nc(-c3c[nH]c4ncccc34)no2)cc1` [Compound P-0602] belongs no more than 10 µM; to `O=C(OCc1ccccc1)c1cnc2[nH]ccc2c1` [Compound P-0607], no more than 10 µM.

Take `CCOC(=O)C(Cc1c[nH]c2ncccc12)C(=O)OCC` [Compound P-0642]: in experiment [3], the IC50 was no more than 10 µM.

Turning to `O=Cc1c[nH]c2nccc(Cl)c12` [Compound P-0649], in experiment [3], the IC50 is no more than 10 µM. On to `COc1cccc(-c2ccc(S(=O)(=O)NCc3c[nH]c4ncccc34)s2)c1` [Compound P-0676], for which the half-inhibitory concentration (IC50) in experiment [3] is no more than 10 µM.

On to `FC(F)(F)c1ccc(-c2ccnc3[nH]ccc23)cc1` [Compound P-0694], for which the IC50 in experiment [3] was no more than 10 µM. Turning to `O=C(c1cccc(Cl)c1Cl)c1c[nH]c2ncc(-c3ccsc3)cc12` [Compound P-0698], the IC50 in experiment [6], in experiment [5], in experiment [4], in experiment [7] and in experiment [3] was no more than 10 µM each time.

`COc1ccc(S(=O)(=O)NCc2ccnc3[nH]ccc23)cc1` [Compound P-0724]: in experiment [3], the half-inhibitory concentration (IC50) was no more than 10 µM.

For `CN(Cc1ccncc1)Cc1[nH]c2ncccc2c1-c1ccc(C(N)=O)cc1` [Compound P-0727], the IC50 in experiment [3] was no more than 10 µM. For `O=C(c1cccc(O)c1)c1ccc(-c2cnc3[nH]ccc3c2)s1` [Compound P-0755], the IC50 in experiment [4], in experiment [2] and in experiment [3] was no more than 10 µM each time. `COc1ccc(OC)c(S(=O)(=O)NCc2c[nH]c3ncccc23)c1` [Compound P-0808]: in experiment [3], the IC50 was no more than 10 µM. The same measure, in the same setting: to `COc1cc(CCNCc2cc3cccnc3[nH]2)ccc1O` [Compound P-0836] belongs no more than 10 µM; to `COCCN1CCN(Cc2[nH]c3ncccc3c2-c2ccc(C(N)=O)cc2)CC1` [Compound P-0856], no more than 10 µM; to `O=S(=O)(NCc1c[nH]c2ncccc12)c1ccc(O)cc1` [Compound P-0859], no more than 10 µM.

For the compound `O=C(c1cccc(F)c1)c1c[nH]c2ncc(Br)cc12` [Compound P-0865], the IC50 in experiment [5], in experiment [2], in experiment [7] and in experiment [3] was no more than 10 µM throughout. Regarding `Brc1c(CNCc2cccnc2)[nH]c2ncccc12` [Compound P-0875], in experiment [3], the IC50 was no more than 10 µM. Turning to `CCCOc1ccc(-c2c[nH]c3ncccc23)cc1` [Compound P-0878], in experiment [3], the IC50 is no more than 10 µM. For `c1cnc2[nH]c(CNCCc3ccncc3)cc2c1` [Compound P-0880], in experiment [3], the IC50 was no more than 10 µM. The same measure, in the same setting: the same measure for `Cc1cccc(-c2ccnc3[nH]cc(CNS(=O)(=O)c4ccc([N+](=O)[O-])cc4)c23)c1` [Compound P-0888]: no more than 10 µM; for `Cc1[nH]c2ncccc2c1-c1ccc(F)c(F)c1` [Compound P-0929]: no more than 10 µM; for `O=S(=O)(NCc1c[nH]c2ncccc12)c1ccc(Cl)s1` [Compound P-0930]: no more than 10 µM. Same read-out and setting: the same measure for `Cc1[nH]c2ncccc2c1-c1ccc(C(C)(C)C)cc1` [Compound P-0953]: no more than 10 µM; for `O=C(NCc1ccccc1Cl)NCc1c[nH]c2ncccc12` [Compound P-0982]: no more than 10 µM; for `O=Cc1ccc(-c2ccnc3[nH]ccc23)cc1` [Compound P-0996]: no more than 10 µM. For the compound `Cc1cc(C(=O)c2c[nH]c3nccc(-c4cccc(/C=C/C(=O)O)c4)c23)no1` [Compound P-1000], the IC50 in experiment [6], in experiment [7] and in experiment [3] was no more than 10 µM throughout.

Regarding `COc1cccc(C(=O)c2c[nH]c3ncc(-c4ccc(C(N)=O)cc4)cc23)c1` [Compound P-1005], the IC50 in experiment [4], in experiment [7] and in experiment [3] was no more than 10 µM throughout. For the compound `O=C(O)/C=C/c1cccc(-c2cnc3[nH]cc(C(=O)c4ccc5nsnc5c4)c3c2)c1` [Compound P-1019], the IC50 in experiment [7] and in experiment [3] was no more than 10 µM in each case. For `O=S(=O)(c1ccsc1)N1CCN(Cc2c[nH]c3ncccc23)CC1` [Compound P-1051], the IC50 in experiment [3] is no more than 10 µM. Regarding `NC(=O)c1ccc(-c2cnc3[nH]cc(C(=O)c4ccc(Cl)cc4)c3c2)cc1` [Compound P-1073], the 50% inhibitory concentration (IC50) in experiment [7] and in experiment [3] was no more than 10 µM each time. Regarding `NC(=O)c1ccc(-c2cnc3[nH]cc(C(=O)c4ccc5nsnc5c4)c3c2)cc1` [Compound P-1081], the IC50 in experiment [7] and in experiment [3] was no more than 10 µM in each case. Consider `CS(=O)(=O)Nc1cccc(-c2cnc3[nH]cc(C(=O)c4ccc5nsnc5c4)c3c2)c1` [Compound P-1089], for which the IC50 in experiment [7] and in experiment [3] was no more than 10 µM throughout. With `CCCCc1ccc(S(=O)(=O)NCc2c[nH]c3ncccc23)cc1` [Compound P-1119], the IC50 in experiment [7] and in experiment [3] was no more than 10 µM in each case. Regarding `O=C1CCCN1CCCNCc1c[nH]c2ncccc12` [Compound P-1184], the IC50 in experiment [3] is no more than 10 µM. For `COCc1c[nH]c2ncccc12` [Compound P-1197], the IC50 in experiment [3] was no more than 10 µM.
